Measured values reported in US6924251B1, “Substituted benzoylcyclohexandiones” (Bayer Aktiengesellschaft, priority 1998, dated 2005).

What was measured:
[1] = logP determination by HPLC (reversed-phase C18), EEC Directive 79/831 Annex V.A8; conditions: for logP: Table 3, compounds of formula (IV); labelled a): acidic range, 0.1% aqueous phosphoric acid, acetonitrile, linear gradient 10% to 90% acetonitrile, 43° C.

With `CCOC(=O)c1ccc(Cl)cc1Cn1nc(OCC)n(C2CC2)c1=O` [IV-42] the logP [1] was “logP = 3.23^a)”.

With `CCOC(=O)c1ccc(C(F)(F)F)cc1Cn1cnn(C)c1=O` [IV-74] the logP [1] was “logP = 2.68^a)”.

In the case of `CCOc1nn(Cc2cc(C(F)(F)F)ccc2C(=O)OC)c(=O)n1C` [IV-117], the logP [1] was “logP = 2.74^a)”.

In the case of `CCOC(=O)c1ccc(C(F)(F)F)cc1Cn1nc(COC)n(C2CC2)c1=O` [IV-77], the logP [1] was “logP = 2.88^a)”.

In the case of `CCOC(=O)c1ccc(Br)cc1Cn1nc(OC(C)C)n(C)c1=O` [IV-65], the logP [1] was “logP = 3.34^a)”.

In the case of `CCOC(=O)c1ccc(Cl)cc1Cn1nc(C(F)(F)F)n(C)c1=O` [IV-43], the logP [1] was “logP = 3.31^a)”.

In the case of `CCOC(=O)c1ccc(Br)cc1Cn1nc(C)oc1=O` [IV-73], the logP [1] was “logP = 2.88^a)”.

With `CCOC(=O)c1ccc(Br)cc1Cn1nc(C(F)(F)F)n(C)c1=O` [IV-35] the logP [1] was “logP = 3.40^a)”.

For `CCOC(=O)c1ccc(Br)cc1Cn1nc(OCC)n(C)c1=O` [IV-58], the logP [1] was “logP = 2.95^a)”.

Molecule `Cn1c(C(F)(F)F)nn(-c2ccc(C(=O)C3C(=O)CCCC3=O)c(Cl)c2)c1=O` [compound 2, 2-[4-(2,6-dioxocyclohexylcarbonyl)-3-chloro-phenyl]4-methyl-5-trifluoromethyl-2,4-dihydro-3H-1,2,4-triazol-3′-one] has a melting point of 182 °C and a chromatographic logP ([1]; reversed-phase C18 HPLC column, pH 2) of 3.13.

For `CCOC(=O)c1ccc(Br)cc1CN1C(=O)CCC1=O` [IV-60], the logP [1] was “logP = 2.44^a)”.

In the case of `COC(=O)c1ccc(Cl)c(CN2C(=O)c3ccccc3S2(=O)=O)c1Cl` [IV-25], the logP [1] was “m.p.: 157 °C logP = 2.94^a)”.

With `CCOC(=O)c1ccc(C(F)(F)F)cc1Cn1nc(CC)n(OCC)c1=O` [IV-48] the logP [1] was “logP = 3.38^a)”.

In the case of `COC(=O)c1ccc(Cl)c(Cn2nc(C3CC3)n(C3CC3)c2=O)c1Cl` [IV-5], the logP [1] was “m.p.: 127 °C logP = 2.55^a)”.

In the case of `COC(=O)c1ccc(Cl)c(Cn2nc(Br)n(C)c2=O)c1Cl` [IV-9], the logP [1] was “m.p.: 164 °C logP = 2.18^a)”.

For `CCOC(=O)c1ccc(Cl)cc1Cn1nc(CC)n(OCC)c1=O` [IV-44], the logP [1] was “logP = 3.14^a)”.

In the case of `CCOC(=O)c1ccc(Br)cc1Cn1nc(SC)n(C)c1=O` [IV-80], the logP [1] was “logP = 2.86^a)”.

In the case of `CCOC(=O)c1ccc(C(F)(F)F)cc1CN1C(=O)c2ccccc2S1(=O)=O` [IV-86], the logP [1] was “logP = 3.67^a)”.

In the case of `COC(=O)c1ccc(Cl)c(Cn2nc3n(c2=O)CCCC3)c1Cl` [IV-14], the logP [1] was “m.p.: 178 °C logP = 1.86^a)”.

In the case of `CCCOc1nn(Cc2cc(C(F)(F)F)ccc2C(=O)OCC)c(=O)n1C` [IV-71], the logP [1] was “logP = 3.54^a)”.

In the case of `CCOC(=O)c1ccc([N+](=O)[O-])cc1Cn1nc(SC)n(C)c1=O` [IV-46], the logP [1] was “logP = 2.82^a)”.

In the case of `CCOn1c(CC)nn(Cc2c(Cl)ccc(C(=O)OC)c2Cl)c1=O` [IV-22], the logP [1] was “m.p.: 85 °C logP = 2.58^a)”.

In the case of `Cn1c(C(F)(F)F)nn(Cc2c(Cl)ccc(C(=O)O)c2Cl)c1=O` [III-3, 4-methyl-5-trifluoromethyl-2-(2,6-dichloro-3-carboxy-benzyl)-2,4-dihydro-3H-1,2,4-triazol-3-one], the melting point was 207 °C.

For `CCOC(=O)c1ccc(F)cc1Cn1nc(OCC)n(C2CC2)c1=O` [IV-98], the logP [1] was “logP = 2.89^a)”.

In the case of `COC(=O)c1ccc(Cl)c(Cn2nc(N(C)C)n(C)c2=O)c1Cl` [IV-12], the logP [1] was “m.p.: 126 °C logP = 2.11^a)”.

In the case of `CCOC(=O)c1ccc(F)cc1Cn1nc(N(C)C)n(C)c1=O` [IV-94], the logP [1] was “logP = 2.21^a)”.

With `CCOC(=O)c1ccc(C(F)(F)F)cc1Cn1nc(OCC(F)(F)F)n(C)c1=O` [IV-93] the logP [1] was “logP = 3.45^a)”.

In the case of `COC(=O)c1ccc(Cl)c(CN2CCCN(C)C2=O)c1Cl` [IV-24], the logP [1] was “logP = 2.07^a)”.

With `COC(=O)c1ccc(Cl)c(Cn2nc(C3CC3)n(C)c2=O)c1Cl` [IV-11] the logP [1] was “m.p.: 106 °C logP = 2.16^a)”.

With `COC(=O)c1ccc(Cl)c(Cn2nc(OCC(F)(F)F)n(C)c2=O)c1Cl` [IV-8] the logP [1] was “m.p.: 129 °C logP = 2.72^a)”.

In the case of `CCOC(=O)c1ccc([N+](=O)[O-])cc1Cn1nc(OCC)n(C2CC2)c1=O` [IV-45], the logP [1] was “logP = 2.42^a)”.

For `CCOc1nn(Cc2c(Cl)ccc(C(=O)OC)c2Cl)c(=O)n1C1CC1` [IV-16], the logP [1] was “m.p.: 99 °C logP = 2.73^a)”.

In the case of `CCOc1nn(Cc2c(Cl)ccc(C(=O)OC)c2Cl)c(=O)n1C` [IV-4], the logP [1] was “m.p.: 120 °C logP = 2.38^a)”.

With `CCOC(=O)c1ccc(Br)cc1CN1CCOC1=O` [IV-72] the logP [1] was “logP = 2.36^a)”.

With `COC(=O)c1ccc(Cl)c(Cn2nc(C)n(C3CC3)c2=O)c1Cl` [IV-20] the logP [1] was “m.p.: 135 °C logP = 1.97^a)”.

With `CCOc1nn(Cc2cc(I)ccc2C(=O)OC)c(=O)n1C` [IV-116] the logP [1] was “logP = 2.68^a)”.

For `COC(=O)c1ccc(Cl)c(Cn2nc(OC)n(C)c2=O)c1Cl` [IV-6], the logP [1] was “m.p.: 121 °C logP = 2.04^a)”.

For `CCOC(=O)c1ccc(C(F)(F)F)cc1Cn1nc(Br)n(C2CC2)c1=O` [IV-79], the logP [1] was “logP = 3.35^a)”.

For `COC(=O)c1ccc(Cl)c(Cn2nc(SC)n(C)c2=O)c1Cl` [IV-3], the logP [1] was “m.p.: 229 °C logP = 2.27^a)”.

For `CCCOc1nn(Cc2cc(Br)ccc2C(=O)OCC)c(=O)n1C` [IV-66], the logP [1] was “logP = 3.38^a)”.

With `CCOC(=O)c1ccc(Br)cc1Cn1nc(Br)n(C)c1=O` [IV-75] the logP [1] was “logP = 2.80^a)”.

In the case of `CCOC(=O)c1ccc(C(F)(F)F)cc1Cn1c(=O)n(C)c(=O)n1C` [IV-113], the logP [1] was “logP = 2.58^a)”.

With `COC(=O)c1ccc(Cl)c(Cn2ncn(C)c2=O)c1Cl` [IV-10] the logP [1] was “m.p.: 158 °C logP = 1.55^a)”.

In the case of `CCOC(=O)c1ccc(S(C)(=O)=O)cc1Cn1nc(SC)n(C)c1=O` [IV-89], the logP [1] was “logP = 1.82^a)”.

For `CCCOC(=O)c1ccc(C(F)(F)F)cc1Cn1nc(OCC)n(C2CC2)c1=O` [IV-50], the logP [1] was “logP = 3.91^a)”.

For `CCOC(=O)c1ccc(C(F)(F)F)cc1Cn1nc(N(C)C)n(C)c1=O` [IV-85], the logP [1] was “logP = 2.79^a)”.

With `COC(=O)c1ccc(Cl)c(Cn2nc(N(C)C)n(C3CC3)c2=O)c1Cl` [IV-21] the logP [1] was “m.p.: 143 °C logP = 2.42^a)”.

With `CCOC(=O)c1ccc(Cl)cc1Cn1nc(SC)n(C)c1=O` [IV-81] the logP [1] was “logP = 2.83^a)”.

With `COC(=O)c1ccc(S(C)(=O)=O)cc1Cn1nc(SC)n(C)c1=O` [IV-114] the logP [1] was “logP = 1.53^a)”.

For `CCOC(=O)c1ccc(C(F)(F)F)cc1Cn1nc(SC)n(C)c1=O` [IV-49], the logP [1] was “logP = 3.02^a)”.

For `CCOC(=O)c1ccc(Br)cc1Cn1nc2n(c1=O)CCCC2` [IV-69], the logP [1] was “logP = 2.41^a)”.

For `CCOC(=O)c1ccc(C(F)(F)F)cc1Cn1nc(OC(C)C)n(C)c1=O` [IV-70], the logP [1] was “logP = 3.51^a)”.

With `CCOC(=O)c1ccc(Br)cc1Cn1nc(CC)n(OCC)c1=O` [IV-34] the logP [1] was “logP = 3.24^a)”.

In the case of `CCOC(=O)c1ccc(Br)cc1Cn1nc(N(C)C)n(C)c1=O` [IV-82], the logP [1] was “logP = 2.60^a)”.

With `CCOC(=O)c1ccc(C(F)(F)F)cc1Cn1nc(Br)n(C)c1=O` [IV-119] the logP [1] was “logP = 2.96^a)”.

In the case of `COC(=O)c1ccc(Cl)c(Cn2nc(SC)n(C3CC3)c2=O)c1Cl` [IV-19], the logP [1] was “m.p.: 131 °C logP = 2.70^a)”.

For `CCOC(=O)c1ccc(F)cc1Cn1nc(OC)n(C2CC2)c1=O` [IV-97], the logP [1] was “logP = 2.50^a)”.

In the case of `CCOC(=O)c1ccc(C(F)(F)F)cc1Cn1nc(OCC)n(C2CC2)c1=O` [IV-47], the logP [1] was “logP = 3.48^a)”.

With `CCOC(=O)c1ccc(Br)cc1Cn1nc2n(c1=O)CCC2` [IV-68] the logP [1] was “logP = 2.16^a)”.

With `COC(=O)c1ccc(Cl)c(CN2CCN(C)C2=O)c1Cl` [IV-23] the logP [1] was “logP = 1.98^a)”.

With `CCOC(=O)c1ccc(C(F)(F)F)cc1CN1C(=O)c2ccccc2C1=O` [IV-87] the logP [1] was “logP = 3.80^a)”.

With `CCOC(=O)c1ccc(C(F)(F)F)cc1Cn1nc(COC)n(C)c1=O` [IV-78] the logP [1] was “logP = 2.60^a)”.

In the case of `CCOC(=O)c1ccc(F)cc1Cn1nc(SC)n(C)c1=O` [IV-37], the logP [1] was “logP = 2.45^a)”.

For `CCOC(=O)c1ccc(F)cc1Cn1nc(COC)n(C)c1=O` [IV-96], the logP [1] was “logP = 2.05^a)”.

In the case of `CCOc1nn(Cc2cc(S(C)(=O)=O)ccc2C(=O)OC)c(=O)n1C` [IV-115], the logP [1] was “logP = 1.59^a)”.

With `COC(=O)c1ccc(Cl)c(Cn2nc(OCC(F)(F)F)n(C3CC3)c2=O)c1Cl` [IV-18] the logP [1] was “m.p.: 102 °C logP = 3.05^a)”.

In the case of `CCOC(=O)c1ccc(C(F)(F)F)cc1Cn1cc(C(F)(F)F)c(=O)[nH]c1=O` [IV-90], the logP [1] was “logP = 2.93^a)”.

`COC(=O)c1ccc(Cl)c(Cn2nc(C(F)(F)F)n(C)c2=O)c1Cl` [IV-2, 4-methyl-5-trifluoromethyl-2-(2,6-dichloro-3-methoxycarbonyl-benzyl)-2,4-dihydro-3H-1.2.4-triazol-3-one] gave a melting point of 109 °C.

In the case of `COC(=O)c1ccc(Cl)c(Cn2nc(OC(C)C)n(C3CC3)c2=O)c1Cl` [IV-17], the logP [1] was “m.p.: 56 °C logP = 3.08^a)”.

In the case of `COC(=O)c1ccc(Cl)c(Cn2nc(C)n(C)c2=O)c1Cl` [IV-13], the logP [1] was “m.p.: 146 °C logP = 1.65^a)”.

With `CCOC(=O)c1ccc(C(F)(F)F)cc1CN1N=C(C)C(C)(C)C1=O` [IV-99] the logP [1] was “logP = 2.91^a)”.

For `COC(=O)c1ccc(Cl)c(Cn2nc(OC)n(C3CC3)c2=O)c1Cl` [IV-15], the logP [1] was “m.p.: 97 °C logP = 2.36^a)”.

For `CCOC(=O)c1ccc(C(F)(F)F)cc1Cn1nc(C)oc1=O` [IV-92], the logP [1] was “logP = 3.04^a)”.

With `COC(=O)c1ccc(Cl)c(Cn2nc(OC(C)C)n(C)c2=O)c1Cl` [IV-7] the logP [1] was “m.p.: 68 °C logP = 2.73^a)”.

With `CCCOc1nn(Cc2cc(F)ccc2C(=O)OCC)c(=O)n1C` [IV-95] the logP [1] was “logP = 2.96^a)”.

With `CCOC(=O)c1ccc(Br)cc1Cn1nc(OCC(F)(F)F)n(C)c1=O` [IV-67] the logP [1] was “logP = 3.31^a)”.

In the case of `COC(=O)c1ccc(C(F)(F)F)cc1Cn1nc(SC)n(C)c1=O` [IV-118], the logP [1] was “logP = 2.65^a)”.

With `CCOC(=O)c1ccc(S(C)(=O)=O)cc1CN1C(=O)CCC1=O` [IV-33] the logP [1] was “logP = 1.53^a)”.
